Test results: patent US12239643B2, “Therapeutic agent for inflammatory diseases, autoimmune diseases, fibrotic diseases, and cancer diseases” (MEIJI SEIKA PHARMA CO., LTD., priority 2018, dated 2025)

system: PDE4; assay: Evaluation of PDE4 inhibitory activity, scintillation proximity assay; format: biochemical; details: scintillation proximity assay; class symbols of Evaluation 1; read-out: PDE4 Inhibitory Activity (concentration for the inhibition rate of 50%, IC50), Evaluation 1
Description: The BDE4 inhibitory activity was measured using scintillation proximity assay (SPA) as follows. First, a test compound dissolved in dimethyl sulfoxide was diluted 1:10 in reaction buffer solution which contained 50 mM of Tris-HCl with pH 7.4, 8.3 mM of MgCl2, 1.7 mM of EGTA, and 3 mg/mL of bovine serum albumin (BSA). Then, 10 μL of the diluted solution was added in a 96-well assay plate. Moreover, 50 μL of PDE4 (enzyme preparation) diluted 1:375 in the reaction buffer solution was added, and then 40 μL of [2,8-^3H]-adenosine-3′,5′-cyclic phosphate triethylammonium salt diluted 1:1000 in the reaction buffer solution was added. The mixture was allowed to stand at room temperature for 120 minutes. Thereafter, […] of RNA binding YSi-SPA beads suspension containing ZnSO4 was added and the mixture was allowed to stand at room temperature for 15 minutes, followed by adsorption of the enzyme reaction product to the beads. After that, the radioactivity was measured using a liquid scintillation counter for a 96-well plate. The mixture without the enzyme preparation added but only the reaction buffer solution added is a blank, and the mixture with the enzyme preparation added and only dimethyl sulfoxide added instead of the test compound is a control.
In addition, the PDE4 inhibitory activity (concentration that inhibits PDE4 activity by 50%=concentration for the inhibition rate of 50% (IC50)) of the test compound was calculated from the inhibition curves based on the inhibition rates for various concentrations of the test compound.

Structure (SMILES)	IC50 [nM]
OC(c1cc(-c2nccs2)c2oc(N3CC4CCC(C3)N4)nc2c1)C(F)(F)F (racemic) [Example 137, 1-(2-(3,8-Diazabicyclo[3.2.1]octan-3-yl)-7-(thiazol-2-yl)benzo[d]oxazol-5-yl)-2,2,2-trifluoroethan-1-ol]	< 100
FC(F)(F)Oc1c(Cl)cc(-c2nccs2)c2oc(N3CC4CCC(C3)N4)nc12 [Example 1, 2-(3,8-Diazabicyclo[3.2.1]octan-3-yl)-5-chloro-7-(thiazol-2-yl)-4-(trifluoromethoxy)benzo[d]oxazole]	< 100
FC(F)(F)Oc1c(Cl)cc(-c2nccs2)c2oc(N3CC4CCCC(C3)N4)nc12 [Example 2, 2-(3,9-Diazabicyclo[3.3.1]nonan-3-yl)-5-chloro-7-(thiazol-2-yl)-4-(trifluoromethoxy)benzo[d]oxazole]	< 100
FC(F)(F)Oc1c(Cl)cc(-c2ccco2)c2oc(N3CC4CCC(C3)N4)nc12 [Example 6, 2-(3,8-Diazabicyclo[3.2.1]octan-3-yl)-5-chloro-7-(furan-2-yl)-4-(trifluoromethoxy)benzo[d]oxazole]	< 100
FC(F)(F)Oc1c(Cl)cc(-c2ccccn2)c2oc(N3CC4CCC(C3)N4)nc12 [Example 7, 2-(3,8-Diazabicyclo[3.2.1]octan-3-yl)-5-chloro-7-(pyridin-2-yl)-4-(trifluoromethoxy)benzo[d]oxazole]	< 100
FC(F)(F)Oc1c(Cl)cc(-c2ncco2)c2oc(N3CC4CCC(C3)N4)nc12 [Example 9, 2-(3,8-Diazabicyclo[3.2.1]octan-3-yl)-5-chloro-7-(oxazol-2-yl)-4-(trifluoromethoxy)benzo[d]oxazole]	< 100
FC(F)(F)c1c(Cl)cc(-c2ccccn2)c2oc(N3CC4CCC(C3)N4)nc12 [Example 11, 2-(3,8-Diazabicyclo[3.2.1]octan-3-yl)-5-chloro-7-(pyridin-2-yl)-4-(trifluoromethyl)benzo[d]oxazole]	< 100
FC(F)(F)c1c(Cl)cc(-c2ccccn2)c2oc(N3CC4CC(C3)N4)nc12 [Example 13, 2-(3,6-Diazabicyclo[3.1.1]heptan-3-yl)-5-chloro-7-(pyridin-2-yl)-4-(trifluoromethyl)benzo[d]oxazole]	< 100
FC(F)(F)c1c(Cl)cc(-c2ccccn2)c2oc(N3CC4COCC(C3)N4)nc12 [Example 14, 7-(5-Chloro-7-(pyridin-2-yl)-4-(trifluoromethyl)benzo[d]oxazol-2-yl)-3-oxa-7,9-diazabicyclo[3.3.1]nonane]	100 to 1000
FC(F)(F)c1c(Cl)cc(-n2cccn2)c2oc(N3CC4CCC(C3)N4)nc12 [Example 15, 2-(3,8-Diazabicyclo[3.2.1]octan-3-yl)-5-chloro-7-(1H-pyrazol-1-yl)-4-(trifluoromethyl)benzo[d]oxazole]	< 100
FC(F)(F)c1c(Cl)cc(-n2cccn2)c2oc(N3CC4CCCC(C3)N4)nc12 [Example 16, 2-(3,9-Diazabicyclo[3.3.1]nonan-3-yl)-5-chloro-7-(1H-pyrazol-1-yl)-4-(trifluoromethyl)benzo[d]oxazole]	< 100
FC(F)(F)c1c(Cl)cc(-n2cccn2)c2oc(N3CC4COCC(C3)N4)nc12 [Example 18, 7-(5-Chloro-7-(1H-pyrazol-1-yl)-4-(trifluoromethyl)benzo[d]oxazol-2-yl)-3-oxa-7,9-diazabicyclo[3.3.1]nonane]	100 to 1000
FC(F)(F)c1c(Cl)cc(-c2nccs2)c2oc(N3CC4COCC(C3)N4)nc12 [Example 19, 7-(5-Chloro-7-(thiazol-2-yl)-4-(trifluoromethyl)benzo[d]oxazol-2-yl)-3-oxa-7,9-diazabicyclo[3.3.1]nonane]	< 100
FC(F)(F)c1c(Cl)cc(-c2nccs2)c2oc(N3CC4CCC(C3)N4)nc12 [Example 20, 2-(3,8-Diazabicyclo[3.2.1]octan-3-yl)-5-chloro-7-(thiazol-2-yl)-4-(trifluoromethyl)benzo[d]oxazole]	< 100
CC(C)c1cc(-c2nccs2)c2oc(N3CC4CCC(C3)N4)nc2c1 [Example 21, 2-(3,8-Diazabicyclo[3.2.1]octan-3-yl)-5-isopropyl-7-(thiazol-2-yl)benzo[d]oxazole]	< 100
CC(C)c1cc(-c2nccs2)c2oc(N3CC4CC(C3)N4)nc2c1 [Example 22, 2-(3,6-Diazabicyclo[3.1.1]heptan-3-yl)-5-isopropyl-7-(thiazol-2-yl)benzo[d]oxazole]	< 100

Structure (SMILES)	IC50 [nM]
CC(C)c1cc(-c2nccs2)c2oc(N3CC4COCC(C3)N4)nc2c1 [Example 23, 7-(5-Isopropyl-7-(thiazol-2-yl)benzo[d]oxazol-2-yl)-3-oxa-7,9-diazabicyclo[3.3.1]nonane]	100 to 1000
CC(C)c1cc(-c2nccs2)c2oc(N3CC4CCCC(C3)N4)nc2c1 [Example 24, 2-(3,9-Diazabicyclo[3.3.1]nonan-3-yl)-5-isopropyl-7-(thiazol-2-yl)benzo[d]oxazole]	< 100
Cc1ccc(-c2nccs2)c2oc(N3CC4CC(C3)N4)nc12 [Example 26, 2-(3,6-Diazabicyclo[3.1.1]heptan-3-yl)-4-methyl-7-(thiazol-2-yl)benzo[d]oxazole]	< 100
Cc1ccc(-c2nccs2)c2oc(N3CC4CCCC(C3)N4)nc12 [Example 27, 2-(3,9-Diazabicyclo[3.3.1]nonan-3-yl)-4-methyl-7-(thiazol-2-yl)benzo[d]oxazole]	< 100
FC(F)(F)Oc1ccc(-c2nccs2)c2oc(N3CC4CCC(C3)N4)nc12 [Example 28, 2-(3,8-Diazabicyclo[3.2.1]octan-3-yl)-7-(thiazol-2-yl)-4-(trifluoromethoxy)benzo[d]oxazole]	< 100
FC(F)(F)c1ccc(-c2nccs2)c2oc(N3CC4CCC(C3)N4)nc12 [Example 31, 2-(3,8-Diazabicyclo[3.2.1]octan-3-yl)-7-(thiazol-2-yl)-4-(trifluoromethyl)benzo[d]oxazole]	< 100
FC(F)(F)c1ccc(-c2nccs2)c2oc(N3CC4CCCC(C3)N4)nc12 [Example 33, 2-(3,9-Diazabicyclo[3.3.1]nonan-3-yl)-7-(thiazol-2-yl)-4-(trifluoromethyl)benzo[d]oxazole]	< 100
CC(=O)Nc1ccc(-c2nccs2)c2oc(N3CC4CCCC(C3)N4)nc12 [Example 34, N-(2-(3,9-Diazabicyclo[3.3.1]nonan-3-yl)-7-(thiazol-2-yl)benzo[d]oxazol-4-yl)acetamide]	< 100
CC(=O)Nc1ccc(-c2nccs2)c2oc(N3CC4CC(C3)N4)nc12 [Example 35, N-(2-(3,6-diazabicyclo[3.1.1]heptan-3-yl)-7-(thiazol-2-yl)benzo[d]oxazol-4-yl)acetamide]	100 to 1000
Clc1ccc(-c2nccs2)c2oc(N3CC4CCC(C3)N4)nc12 [Example 36, 2-(3,8-Diazabicyclo[3.2.1]octan-3-yl)-4-chloro-7-(thiazol-2-yl)benzo[d]oxazole]	< 100
Clc1ccc(-c2nccs2)c2oc(N3CC4CC(C3)N4)nc12 [Example 37, 2-(3,6-Diazabicyclo[3.1.1]heptan-3-yl)-4-chloro-7-(thiazol-2-yl)benzo[d]oxazole]	< 100
Clc1ccc(-c2nccs2)c2oc(N3CC4CCCC(C3)N4)nc12 [Example 38, 2-(3,9-Diazabicyclo[3.3.1]nonan-3-yl)-4-chloro-7-(thiazol-2-yl)benzo[d]oxazole]	< 100
CSc1cc(-c2nccs2)c2oc(N3CC4CCC(C3)N4)nc2c1 [Example 39, 2-(3,8-Diazabicyclo[3.2.1]octan-3-yl)-5-(methylthio)-7-(thiazol-2-yl)benzo[d]oxazole]	< 100
CSc1cc(-c2nccs2)c2oc(N3CC4CC(C3)N4)nc2c1 [Example 40, 2-(3,6-Diazabicyclo[3.1.1]heptan-3-yl)-5-(methylthio)-7-(thiazol-2-yl)benzo[d]oxazole]	< 100
CSc1cc(-c2nccs2)c2oc(N3CC4CCCC(C3)N4)nc2c1 [Example 41, 2-(3,9-Diazabicyclo[3.3.1]nonan-3-yl)-5-(methylthio)-7-(thiazol-2-yl)benzo[d]oxazole]	< 100
C[S+]([O-])c1cc(-c2nccs2)c2oc(N3CC4CCC(C3)N4)nc2c1 (stereo not shown) [Example 42, 2-(3,8-Diazabicyclo[3.2.1]octan-3-yl)-5-(methylsulfinyl)-7-(thiazol-2-yl)benzo[d]oxazole]	< 100

same assay, conditions: scintillation proximity assay; read-out: PDE4 Inhibitory Activity (Evaluation 1; concentration for the inhibition rate of 50%)

Structure (SMILES)	IC50 [nM]
CON=C(C)c1cc(-c2nccs2)c2oc(N3CC4CCC(C3)N4)nc2c1OC(F)(F)F (mixture of isomers) [Example 218, (E)-1-(2-(3,8-diazabicyclo[3.2.1]octan-3-yl)-7-(thiazol-2-yl)-4-(trifluoromethoxy)benzo[d]oxazol-5-yl)ethan-1-one O-methyloxime and (Z)-1-(2-(3,8-diazabicyclo[3.2.1]octan-3-yl)-7-(thiazol-2-yl)-4-(trifluoromethoxy)benzo[d]oxazol-5-yl)ethan-1-one O-methyloxime]	< 100
CC(O)C(F)(F)Oc1ccc(-c2nccs2)c2oc(N3CC4CC(C3)N4)nc12 (racemic) [Example 250, 1-((2-(3,6-Diazabicyclo[3.1.1]heptan-3-yl)-7-(thiazol-2-yl)benzo[d]oxazol-4-yl)oxy)-1,1-difluoropropan-2-ol]	< 100
